Data as given in patent publication US6710018B2, “Compositions containing a dicarboxylic acid diester and a post-emergent herbicide and a method of using the same” (Falcon Lab LLC, priority 2002, dated 2004).

Tests used:
Type in all cases: in vivo
target weed = assay: General observations on time to necrosis or kill of weeds
a variety of weeds = assay: Example 1: whole plot, summary of visual effect in words; settings: Example 1 plot; after one day
Procedure: A quart of glyphosate herbicide was prepared using the label recommendations of the manufacturer (Monsanto) by adding 18 ml. (0.625 liq. oz.) of “Roundup® Super Concentrate” (41% isopropyl glyphosate), to water and bringing the final solution to 32 oz. liquid (Sol. A). To another 18 ml. of “Roundup Concentrate” was added 18 ml. of dimethyl azelate and this mixture diluted with water to 32 liq. oz. (Sol. B). Thus, each solution contained the same amount of glyphosate while Sol. B also contained 2% dimethyl azelate.
Sol. A was applied with a hand sprayer on a 2 ft. by 3 ft. plot of ground containing a variety of weeds. Sol. B was applied in the same manner on a similar adjacent plot containing the same variety of weeds. The temperature was in the mid-80's (° F.) during the test period with no rain.
The test plots were observed daily.

[1] = test system: Mugwort (Artemisia vulgaris L.); assay: Example 3: container-grown mugwort, spray treatment, necrosis and control; settings: DMA 1.5 % W/W, 40 gal/A spray; for % Necrosis Day 1: Day 1, glyphosate 0.5 % W/W; for % Necrosis Day 3: Day 3, glyphosate 0.5 % W/W; for % Control Day 9: Day 9, glyphosate 0.5 % W/W; for % Control Day 12: Day 12, glyphosate 0.5 % W/W; for % Control Day 15: Day 15, glyphosate 0.5 % W/W; for % Control Day 19: Day 19, glyphosate 0.5 % W/W
Procedure: Mugwort (Artemisia vulgaris L.) rhizomes 2 to 3 inches in length were collected from established plants and planted into soil-less media in 16 fl. oz. size containers. Each container was a replicate and contained one plant. On Day 0, 14 to 18 inch height single stem plants of mugwort were treated with the solutions shown in Table 1 with calibrated hand pump sprayers with constant agitation. Each plant was sprayed with 14 hand pumps for a nominal 40 gal/A spray volume application. Treatments were irrigated and fertilized as needed.

Velvetleaf = assay: Example 4: container-grown velvetleaf, backpack sprayer, necrosis and control; settings: for % Necrosis After 1 Day / % Control 5 Days / % Control 9 Days / % Control 21 Days: velvetleaf, chlorimuron 0.31 lb.ai/A, dimethyl azelate 1.5 % W/W, 12 gal/A spray
Procedure: Chlorimuron is a sulfonylurea-type postemergence herbicide, sold by duPont under the trade name “Classic”. Dimethyl azelate (80% technical grade with 20% emulsifier) was added with the dilute herbicidal spray solution to determine if the rapidity and effectiveness of weed control was improved. A single nozzle flat fan wand backpack sprayer with C02 propellant calibrated for 12 gal/A spray volume was used to apply the treatments with a handheld wand applicator and constant walking speed. Velvetleaf plants of 6 to 8 inch height with 3 plants per 16 fl oz container in soil-less media were treated with the mixtures shown in the table below. Each treatment was applied to 3 containers to provide 3 replications per treatment. The dilute spray solutions were agitated during application. The effects of the treatment were observed daily for 21 days with the following results: […]

Rye (Secale cereale L) = assay: Example 6 Study 1: container-grown rye, spray treatment, necrosis and control; settings: sethoxydin 0.01 % W/W, dimethyl azelate 3 % W/W, 25 gal/Acre spray; for % Necrosis After 3 Day: 3 days
Procedure: Rye (Secale cereale L) was grown in 16 fl. oz. containers in soil less media until 4 inches in height and then treated with the herbicidal compositions shown in Table 1 by spraying the herbicidal compositions with 4 pumps of a calibrated hand pump sprayer. The spray volume delivered was 25 gal/Acre. The containers contained approximately 12 rye plants per pot and each container was one replication. Treatments were in full sun with no wind. The effects of the treatments were observed over 3 weeks with the following results recorded: Sethoxydin, a cyclohexadione class herbicide, was obtained from BASF Corp. as “Poast”. The dimethyl azelate was a technical grade obtained from Cognis Corp.

corn (Zea mays L.) = assay: Example 6 Study 2: potted corn, spray treatment, necrosis and control; settings: sethoxydin 0.01 % W/W, dimethyl azelate 3 % W/W, 13 gal/A spray; for % Necrosis After 3 Day: 3 days
Procedure: Rye (Secale cereale L) was grown in 16 fl. oz. containers in soil less media until 4 inches in height and then treated with the herbicidal compositions shown in Table 1 by spraying the herbicidal compositions with 4 pumps of a calibrated hand pump sprayer. The spray volume delivered was 25 gal/Acre. The containers contained approximately 12 rye plants per pot and each container was one replication. Treatments were in full sun with no wind. The effects of the treatments were observed over 3 weeks with the following results recorded: Sethoxydin, a cyclohexadione class herbicide, was obtained from BASF Corp. as “Poast”. The dimethyl azelate was a technical grade obtained from Cognis Corp. Another identical study was conducted with corn (Zea mays L.) with 3 plants per pot and 2 replications. The treatments were applied as 2 pumps per pot for a 13 gal/A spray volume to 6 inch height corn plants.

[2] = test system: Momingglory, pitted (Ipomoea lacunosa L.); assay: Example 5: potted pitted morningglory, spray treatment, epinasty and control; settings: DMA 2.0 % W/W, 12 gpa spray
Procedure: Momingglory, pitted (Ipomoea lacunosa L.) was seeded into soil-less media in 16 fl oz plastic pots with 3 plants established per pot. Each pot was a replication. When the morningglory plants had two true leaves, control treatments were applied by 2 manual hand pumps from a calibrated hand-pump sprayer. The spray application was a nominal 12 gpa spray volume. The Day 0 treatments were applied as 2 replications with constant agitation of the dilute spray solution. Treatments were evaluated for a 21 day interval after application as follows: […]

Row | SMILES | % Necrosis Day 1 [1] [%] | % Necrosis Day 3 [1] [%] | % Control Day 9 [1] [%] | % Control Day 12 [1] [%] | % Control Day 15 [1] [%] | % Control Day 19 [1] [%] | % Necrosis After 1 Day (Velvetleaf) [%] | % Control 5 Days (Velvetleaf) [%] | % Control 9 Days (Velvetleaf) [%] | % Control 21 Days (Velvetleaf) [%] | % Necrosis After 1 Day (Rye (Secale cereale L)) [%] | % Necrosis After 3 Day (Rye (Secale cereale L)) [%] | % Control 5 Days (Rye (Secale cereale L)) [%] | % Control 9 Days (Rye (Secale cereale L)) [%] | % Control 21 Days (Rye (Secale cereale L)) [%] | % Necrosis After 1 Day (corn (Zea mays L.)) [%] | % Necrosis After 3 Day (corn (Zea mays L.)) [%] | % Control 5 Days (corn (Zea mays L.)) [%] | % Control 9 Days (corn (Zea mays L.)) [%] | % Control 21 Days (corn (Zea mays L.)) [%] | also measured
1 | O=C(O)CNCP(=O)(O)O [Glyphosate] | 0 | 0 | 53 | 100 | 100 | 100 |  |  |  |  |  |  |  |  |  |  |  |  |  |  | time for weed and grass necrosis to approach 100% (target weed; without the addition of dimethyl azelate): 3 to 4 days; minimal necrosis times (target weed; without the diester): three to four; visual effect on the weeds of the plot, in words (a variety of weeds): unaffected
2 | COc1cc(Cl)nc(NC(=O)NS(=O)(=O)c2ccccc2C(=O)O)n1 [Chlorimuron] |  |  |  |  |  |  | 0 | 48 | 53 | 23 |  |  |  |  |  |  |  |  |  |  | 
3 | CCC/C(=N\OCC)C1=C(O)CC(CC(C)SCC)CC1=O (stereo not shown) [Sethoxydin] |  |  |  |  |  |  |  |  |  |  | 0 | 3 | 24 | 79 | 94 | 0 | 3 | 10 | 40 | 88 | 
4 | COC(=O)CCCCCCCC(=O)OC [DMA, Dimethyl azelate] | 49 | 53 | 33 | 21 | 18 | 13 | 0 | 0 | 0 | 0 | 13 | 15 | 8 | 0 | 0 | 18 | 15 | 13 | 0 | 0 | % Epinasty Day 5 (leaf distortion and downward twisting) ([2]; Day 5, 2,4-D ester 0.3 % W/W): 5%; % Control Day 7 ([2]; Day 7, 2,4-D ester 0.3 % W/W): 3%; % Control Day 10 ([2]; Day 10, 2,4-D ester 0.3 % W/W): 0%; % Control Day 14 ([2]; Day 14, 2,4-D ester 0.3 % W/W): 0%; % Control Day 21 ([2]; Day 21, 2,4-D ester 0.3 % W/W): 0%; response of velvetleaf, in words (Velvetleaf; dimethyl azelate alone, 1.5 % W/W): tolerant
